Reference: publication PMC10463376, “Design, synthesis, in vitro anticancer, molecular docking and SAR studies of new series of pyrrolo[2,3-d]pyrimidine derivatives” (BMC Chemistry, 2023)
“Also recorded” adds a separate entry of the source.

Experiments:
Type in all cases: cell-based, human
P53 [1] = assay: RT-qPCR P53 mRNA in A549; details: A549, vs negative control
Procedure: (§1) All of the extractions were conducted on ice with ice-cold reagents. Total RNA from the different cell lines was isolated using Trizol (Invitrogen; Life Technologies, USA) according to the method of Sthoeger et al.. The 260:280 ratios were measured to determine RNA quality after the isolation method was completed according to the manufacturer’s instructions. A high-capacity cDNA reverse transcription kit was used to produce complementary DNA (cDNA) (Applied Biosystems, USA). […] The relative gene expression method (i.e., ΔΔCT) was used to analyze the real-time PCR data, as explained in Applied Biosystem User Bulletin No. 2. Each sample and gene were normalized using the β-actin gene.

Casp-3 [2] = assay: RT-qPCR Casp-3 mRNA in A549
Procedure: as §1

DR5 [3] = assay: RT-qPCR DR5 mRNA in A549
Procedure: as §1

Bcl-2 [4] = assay: RT-qPCR Bcl-2 mRNA in A549; details: A549, vs negative control
Procedure: as §1

DR4 [5] = assay: RT-qPCR DR4 mRNA in A549
Procedure: as §1

BAX = assay: RT-qPCR BAX mRNA in A549; details: A549, vs negative control
Procedure: as §1

[6] = test system: breast cancer cell line (MCF-7); assay: DNA fragmentation assay, MCF7; details: MCF7, IC50, 24 h, vs negative control (P < 0.01); order 14a > 18b > positive > 16b > 14b
Procedure: The DNA fragmentation assay in a pancreatic cell line (Paca2), breast cancer cell lines (MCF-7) and lung cell line (A549) was performed in concordance with the premises established by Yawata with some modifications. Briefly, after 24 h of exposure of Paca2, MCF-7 and A549 cancer cell lines to the prepared compounds in different Petri dishes (60 × 15 mm, Greiner), the cells were suspended and homogenized in 1 ml of medium and then centrifuged for 10 min at 900 rpm. The genomic DNA was extracted as shown in Yawata. About 1 × 10^6 cells of each tested cancer cell line were treated with the IC50 values of the tested compounds. All the cells were collected via trypsinization and washed with Dulbecco`s Phosphate Buffered Saline. Then, the cells were treated with the lysis buffer containing 5 mM ethylenediaminetetraacetic acid (EDTA), 10 mM Tris (pH 7.4), 0.5% Triton X-100 and 150 mM NaCl for 35 min on ice. After that, the lysates were vortexed and centrifuged for 20 min at 10.000 xg. The fragmented DNA was extracted from the supernatant with an equal volume of isoamyl alcohol: chloroform: neutral phenol mixture (1:24:25). Finally, the percentage of fragmented DNA was determined by performing gel electrophoresis using 2% agarose gel containing 0.1 μg/ml ethidium bromide.
Pancreatic cancer cell line (Paca2), breast cancer cell line (MCF-7) and lung cancer cell line (A549) were used to determine the percentage of DNA fragmentation after the treatment with IC50 of the tested compounds. The selected cells were suspended in 0.5 ml of lysis buffer containing 1 mM EDTA, 10 mM Tris–HCl (pH 8) and 0.2% triton X-100. Then, the cells were centrifuged at 10.000 rpm for 20 min at 4 °C. After removing the supernatant, the pellets were re-suspended in 0.5 ml of lysis buffer. Then, 0.5 ml of 25% tri-chloroacetic acid (TCA) was added to the pellets (P) and the supernatants (S), and incubated for 24 h at 4 °C. Afterwards, the cells were centrifuged at 4 °C for 25 min at 10,000 rpm and the pellets were suspended in […] of 5% TCA, followed by incubation at 80 °C for 20 min. Finally, […] of Diphenyl Amine (DPA) solution [[…] of sulfuric acid, 150 mg DPA in 10 ml glacial acetic acid, and […] acetaldehyde (16 mg/ml)] was added to each cell sample and kept at room temperature for 24 h. The percentage of fragmented DNA was measured from the absorbance reading at 600 nm wavelength using the following formula:
% Fragmented DNA = [OD(S)/[OD(S) + OD(P)] × 100 (OD: optical density, S: supernatant, P: pellet).

MCF7 cells [7] = assay: Flow cytometric cell cycle analysis (PI), MCF7; details: MCF7, 24 h, IC50 concentration; for cell cycle arrest (phase): vs untreated control; for percentage of cells in the G0/G1 phase: control 11.43%
Procedure: Herein, the negative control was the untreated MCF7 cells and Doxorubicin was used as a positive control. Firstly, after the treatment time of 24 h, MCF7 cells were centrifuged at 1000 rpm for 5 min at 4 °C. The supernatant was discarded and the cells pellet were washed in phosphate-buffered saline (PBS). Then, the cells pellet were centrifuged at 1000 rpm for another 5 min. Afterward, the cells were collected in a single-cell suspension and maintained in 70% ethanol overnight on ice. Then, cells were washed with 1 ml PBS. At last, 200 µl 1 × propidium iodide (PI) mixture was added to the cells pellet in the dark at room temperature for 30 min. Then, the DNA content was analyzed by subjecting the cells to an Epics XL-MCL flow cytometer (Beckman Coulter, Miami, FL). The distribution of cells at different phases of the cell cycle was determined by Multi-cycle software (Phoenix Flow Systems, San Diego, CA).

MCF7 cells [8] = assay: Annexin V-FITC/PI apoptosis flow cytometry, MCF7; details: for percentage of late apoptotic cells (Q1-UR) / percentage of necrotic cells (Q1-UL) / percentage of early apoptotic cells (Q1-LR): MCF7, 24 h, IC50; for percentage of late apoptotic cells (Q1-UR): control 0.41%; for percentage of necrotic cells (Q1-UL): control 1.01%; for percentage of early apoptotic cells (Q1-LR): control 7.8%; for induction of apoptotic death: MCF7 cells
Procedure: The percentage of apoptotic cells was detected by using Annexin V-FITC kit catalog number (#K101-25). About 2X10^6 of MCF7 and Paca2 cells were washed in 500 µl of 1 × PBS. Then, the cells were centrifuged and the supernatant was discarded. The cells pellet were re-suspended in the annexin V incubation reagent. The annexin V incubation reagent contained 10 μl binding buffer (10 ×), 10 μl propidium iodide, 1 μl annexin V-FITC, and 79 μl deionized water. The cells were incubated in 100 μl annexin V incubation reagent for 15 min in the dark at room temperature. Finally, the apoptotic cell percentage was detected by flow cytometry using the FITC signal detector (usually FL-1) and PI staining by the phycoerythrin emission signal detector (usually FL-2).

CDK4 = assay: RT-qPCR CDK4 mRNA in Paca2; details: 17 vs both Dox. and negative control
Procedure: as §1

DR5 [9] = assay: RT-qPCR DR5 mRNA in Paca2; details: 17 vs both Dox. and negative control
Procedure: as §1

Casp-3 [10] = assay: RT-qPCR Casp-3 mRNA in Paca2; details: 17 vs both Dox. and negative control
Procedure: as §1

P53 [11] = assay: RT-qPCR P53 mRNA in Paca2; details: 17 vs both Dox. and negative control
Procedure: as §1

IL-8 = assay: RT-qPCR IL-8 mRNA in Paca2; details: 17 vs both Dox. and negative control
Procedure: as §1

DR4 [12] = assay: RT-qPCR DR4 mRNA in Paca2; details: 17 vs both Dox. and negative control
Procedure: as §1

Bcl-2 [13] = assay: RT-qPCR Bcl-2 mRNA in Paca2; details: 17 vs both Dox. and negative control
Procedure: as §1

COc1ccc(-c2c(Cl)n(-c3ccc(Cl)cc3Cl)c3ncnc(Cl)c23)cc1OC [Compound 4b, 4,6-dichloro-7-(2,4-dichlorophenyl)-5-(3,4-dimethoxyphenyl)-7H-pyrrolo[2,3-d]pyrimidine]
P53 mRNA level (P53 [1]): up-regulated | Casp-3 mRNA level (Casp-3 [2]): up-regulated | DR5 mRNA level (DR5 [3]): up-regulated | Bcl-2 mRNA level (Bcl-2 [4]): down-regulated | DR4 mRNA level (DR4 [5]): up-regulated | BAX mRNA level (BAX): up-regulated

NNc1ncnc2c1c(-c1ccc(Br)cc1)c(Cl)n2-c1ccc(Cl)cc1Cl [Compound 14a, 5-(4-bromophenyl)-6-chloro-7-(2,4-dichlorophenyl)-4-hydrazineyl-7H-pyrrolo[2,3-d]pyrimidine]
DNA fragmentation rate [6]: increased significantly | cell cycle arrest (phase) (MCF7 cells [7]): G1 and S phases; also recorded: G1/S phase | percentage of cells in the G0/G1 phase (MCF7 cells [7]): 68.60%

COc1ccc(-c2c(Cl)n(-c3ccc(Cl)cc3Cl)c3ncnc(NN)c23)cc1OC [Compound 14b, 6-chloro-7-(2,4-dichlorophenyl)-5-(3,4-dimethoxyphenyl)-4-hydrazineyl-7H-pyrrolo[2,3-d]pyrimidine]
DNA fragmentation rate [6]: increased significantly | cell cycle arrest (phase) (MCF7 cells [7]): G1 and S phases; also recorded: G1/S phase | percentage of cells in the G0/G1 phase (MCF7 cells [7]): 85.98%

COc1ccc(-c2c(Cl)n(-c3ccc(Cl)cc3Cl)c3ncnc(N4CCN(C)CC4)c23)cc1OC [Compound 16b, 6-chloro-7-(2,4-dichlorophenyl)-5-(3,4-dimethoxyphenyl)-4-(4-methylpiperazin-1-yl)-7H-pyrrolo[2,3-d]pyrimidine]
percentage of late apoptotic cells (Q1-UR) (MCF7 cells [8]): 1.7% | percentage of necrotic cells (Q1-UL) (MCF7 cells [8]): 0.96% | percentage of early apoptotic cells (Q1-LR) (MCF7 cells [8]): 11.49% | induction of apoptotic death (MCF7 cells [8]): induced the apoptotic death | DNA fragmentation rate [6]: increased significantly

CN1CCN(c2nc(C(Cl)(Cl)Cl)nc3c2c(-c2ccc(Br)cc2)c(Cl)n3-c2ccc(Cl)cc2Cl)CC1 [Compound 17, 5-(4-bromophenyl)-6-chloro-7-(2,4-dichlorophenyl)-4-(4-methylpiperazin-1-yl)-2-(trichloromethyl)-7H-pyrrolo[2,3-d]pyrimidine]
CDK4 mRNA level (CDK4): lowered | DR5 mRNA level (DR5 [9]): up-regulated | Casp-3 mRNA level (Casp-3 [10]): up-regulated | P53 mRNA level (P53 [11]): up-regulated | IL-8 mRNA level (IL-8): lowered | DR4 mRNA level (DR4 [12]): up-regulated | Bcl-2 mRNA level (Bcl-2 [13]): down-regulated

COc1ccc(-c2c(Cl)n(-c3ccc(Cl)cc3Cl)c3ncnc(N4CCOCC4)c23)cc1OC [Compound 18b, 4-(6-chloro-7-(2,4-dichlorophenyl)-5-(3,4-dimethoxyphenyl)-7H-pyrrolo[2,3-d]pyrimidin-4-yl)morpholine]
percentage of late apoptotic cells (Q1-UR) (MCF7 cells [8]): 0.89% | percentage of necrotic cells (Q1-UL) (MCF7 cells [8]): 0.76% | percentage of early apoptotic cells (Q1-LR) (MCF7 cells [8]): 20.63% | induction of apoptotic death (MCF7 cells [8]): induced the apoptotic death | DNA fragmentation rate [6]: increased significantly

COc1cccc2c1C(=O)c1c(O)c3c(c(O)c1C2=O)C[C@@](O)(C(=O)CO)C[C@@H]3O[C@H]1C[C@H](N)[C@H](O)[C@H](C)O1 [Dox, Doxorubicin, reference compound]
P53 mRNA level (P53 [1]): up-regulated | CDK4 mRNA level (CDK4): no significant difference | Casp-3 mRNA level (Casp-3 [2]): up-regulated | DR5 mRNA level (DR5 [9]): no significant difference | DR5 mRNA level (DR5 [3]): up-regulated | Casp-3 mRNA level (Casp-3 [10]): no significant difference | Bcl-2 mRNA level (Bcl-2 [4]): down-regulated | DR4 mRNA level (DR4 [5]): up-regulated | BAX mRNA level (BAX): up-regulated | P53 mRNA level (P53 [11]): no significant difference | IL-8 mRNA level (IL-8): no significant difference | DR4 mRNA level (DR4 [12]): no significant difference | Bcl-2 mRNA level (Bcl-2 [13]): no significant difference
